Measurements taken from ChEMBL document CHEMBL2169808, “Discovery of pyrazole carboxylic acids as potent inhibitors of rat long chain L-2-hydroxy acid oxidase” (Bioorg Med Chem Lett, 2012).
pIC50: −log10 of the molar value.

Columns and labels:
Rattus norvegicus = organism: Rattus norvegicus; test: Selectivity ratio of IC50 for rat Hao1 to IC50 for rat Hao2
[1] = molecular target: T1, 2-Hydroxyacid oxidase 2 (Homo sapiens) (UniProt Q9NYQ3); test: Inhibition of human Hao2-mediated oxidation of 2-hydroxyoctanoic acid assessed as proportionate release of H2O2 at 10 uM
T1 sequence (whole entry): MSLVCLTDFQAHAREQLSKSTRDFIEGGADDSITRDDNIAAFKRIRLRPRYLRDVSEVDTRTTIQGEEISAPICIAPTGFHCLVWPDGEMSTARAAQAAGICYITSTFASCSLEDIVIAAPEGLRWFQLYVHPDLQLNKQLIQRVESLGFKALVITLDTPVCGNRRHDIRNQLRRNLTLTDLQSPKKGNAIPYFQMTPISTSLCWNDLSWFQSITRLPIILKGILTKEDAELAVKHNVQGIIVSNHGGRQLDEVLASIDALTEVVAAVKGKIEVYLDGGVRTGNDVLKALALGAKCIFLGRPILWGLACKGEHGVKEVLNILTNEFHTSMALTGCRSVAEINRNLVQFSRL

[2] = molecular target: T1, 2-Hydroxyacid oxidase 2 (Homo sapiens); test: Inhibition of human Hao2-mediated oxidation of 2-hydroxyoctanoic acid assessed as proportionate release of H2O2 at 1 uM
2-Hydroxyacid oxidase 2 = molecular target: T2, 2-Hydroxyacid oxidase 2 (Rattus norvegicus, UniProt Q07523); test: Inhibition of rat Hao2-mediated oxidation of 2-hydroxyoctanoic acid assessed as proportionate release of H2O2
T2 sequence (Q07523 whole entry): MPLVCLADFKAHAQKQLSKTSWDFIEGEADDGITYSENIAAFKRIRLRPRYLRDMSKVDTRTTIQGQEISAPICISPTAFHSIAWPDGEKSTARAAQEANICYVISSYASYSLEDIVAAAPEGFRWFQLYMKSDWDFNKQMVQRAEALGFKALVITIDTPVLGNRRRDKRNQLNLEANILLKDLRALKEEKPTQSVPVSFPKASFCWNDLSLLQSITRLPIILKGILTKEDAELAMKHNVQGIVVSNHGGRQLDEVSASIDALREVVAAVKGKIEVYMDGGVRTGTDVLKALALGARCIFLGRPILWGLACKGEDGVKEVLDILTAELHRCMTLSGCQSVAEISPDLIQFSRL

[3] = molecular target: T3, 2-Hydroxyacid oxidase 2 (Rattus norvegicus) (UniProt Q07523); test: Inhibition of rat Hao2-mediated oxidation of 2-hydroxyoctanoic acid assessed as proportionate release of H2O2 at 1 uM
T3 sequence (whole entry): T2 sequence (Q07523 whole entry)

[4] = molecular target: T3, 2-Hydroxyacid oxidase 2 (Rattus norvegicus); test: Inhibition of rat Hao2-mediated oxidation of 2-hydroxyoctanoic acid assessed as proportionate release of H2O2 at 10 uM

Ratio IC50 (Rattus norvegicus)	inhibition [1] [%]	inhibition [2] [%]	pIC50 (2-Hydroxyacid oxidase 2)	inhibition [3] [%]	inhibition [4] [%]	Compound
> 150	8	10				O=C(O)c1[nH]nc(Cc2ccccc2)c1Cc1cccc(-c2ccc(F)cc2)c1
> 150	45	9	6.05			Cc1n[nH]c(C(=O)O)c1CCc1cccc(-c2ccc(F)cc2)c1
			6.30			Cc1[nH]nc(C(=O)O)c1Cc1ccc(Oc2ccccc2)cc1
			6.52			CCc1[nH]nc(C(=O)O)c1Cc1cccc(-c2ccc(F)cc2)c1
			6.15			Cc1[nH]nc(C(=O)O)c1Cc1ccc(F)cc1
> 150	34	6	6.52			Cc1n[nH]c(C(=O)O)c1Cc1cccc(-c2ccc(OC(F)(F)F)cc2)c1
			6.52			Cc1[nH]nc(C(=O)O)c1Cc1cccc(C(F)(F)F)c1
	8	8		0	3	Cc1n[nH]c(C(=O)NS(C)(=O)=O)c1Cc1cccc(-c2ccc(F)cc2)c1
> 150	11	2	6.30			CC(C)c1n[nH]c(C(=O)O)c1Cc1cccc(-c2ccc(F)cc2)c1
> 150	26	2	6.15			Cc1n[nH]c(C(=O)O)c1Cc1cccc(OC(F)(F)F)c1
> 150	59	22				Cc1n[nH]c(C(=O)O)c1Cc1cccc2ccccc12
			5.89			Cc1[nH]nc(C(=O)O)c1Cc1ccccc1C(F)(F)F
> 150	14	1	5.74			O=C(O)c1[nH]nc(-c2ccccc2)c1Cc1cccc(-c2ccc(F)cc2)c1
> 150	29	11				Cc1n[nH]c(C(=O)O)c1Cc1ccc(-c2ccc(OC(F)(F)F)cc2)cc1
> 150	8	8				Cc1n[nH]c(C(=O)O)c1Cc1cccc(C(N)=O)c1
			6.40			Cc1[nH]nc(C(=O)O)c1Cc1cccc(-c2cccnc2)c1
	0	0		0	9	Cc1n[nH]c(C(=O)Nc2nnn[nH]2)c1Cc1cccc(-c2ccc(F)cc2)c1
> 150	13	1	6.70			Cc1n[nH]c(C(=O)O)c1Cc1cccc(F)c1
			5.85			Cc1[nH]nc(C(N)=O)c1Cc1cccc(-c2ccc(F)cc2)c1
			6.70			Cc1[nH]nc(C(=O)O)c1Cc1cccc2ccccc12
			5.70			Cc1[nH]nc(C(=O)O)c1Cc1ccc(-c2ccc(OC(F)(F)F)cc2)cc1
> 150	30	8				Cc1n[nH]c(C(=O)O)c1Cc1cccc(-c2ccc(C(F)(F)F)cc2)c1

Ratio IC50 (Rattus norvegicus)	inhibition [1] [%]	inhibition [2] [%]	pIC50 (2-Hydroxyacid oxidase 2)	inhibition [3] [%]	inhibition [4] [%]	Compound
> 150	13	3		1		Cc1n[nH]c(C(=O)O)c1-c1ccc(F)cc1
> 150	18	2	5.77			Cc1n[nH]c(C(=O)O)c1Cc1ccc2ccccc2n1
			6.05			Cc1[nH]nc(C(=O)O)c1Cc1cccc(C(N)=O)c1
> 150	8	0				Cc1n[nH]c(C(=O)O)c1Cc1ccc(C(N)=O)cc1
	14	1				Cc1n[nH]c(C(N)=O)c1Cc1cccc(-c2ccc(F)cc2)c1
> 150	25	11				Cc1n[nH]c(C(=O)O)c1Cc1ccc(-c2ccc(F)cc2)cc1
> 150	38	13				Cc1n[nH]c(C(=O)O)c1Cc1ccccc1C(F)(F)F
> 150	16	4				O=C(O)c1[nH]nc(CCc2ccccc2)c1Cc1cccc(-c2ccc(F)cc2)c1
> 150	34	7	5.89			Cc1n[nH]c(C(=O)O)c1Cc1ccc(OC(F)(F)F)cc1
			5.96			Cc1[nH]nc(C(=O)O)c1Cc1ccc(-c2ccc(C(F)(F)F)cc2)cc1
> 150	29	8				Cc1n[nH]c(C(=O)O)c1Cc1cc2ccccc2s1
> 150	46	13				Cc1n[nH]c(C(=O)O)c1Cc1cccc(-c2ccc(C#N)cc2)c1
> 150	23	5				Cc1n[nH]c(C(=O)O)c1Cc1cccc(C(F)(F)F)c1
			6.52			Cc1[nH]nc(C(=O)O)c1Cc1cccc(-c2ccc(C#N)cc2)c1
> 150	36	5				CCc1n[nH]c(C(=O)O)c1Cc1cccc(-c2ccc(F)cc2)c1
> 150	41	12	6.22			Cc1n[nH]c(C(=O)O)c1Cc1cccc(Oc2ccccc2)c1
> 150	21	2				Cc1n[nH]c(C(=O)O)c1Cc1cccc(-c2ccc(CC(=O)O)cc2)c1
> 150	45	13				Cc1n[nH]c(C(=O)O)c1Cc1cccc(-c2cccnc2)c1
> 150	15	3	5.96			Cc1n[nH]c(C(=O)O)c1Cc1cccc(-c2ccc(C(=O)O)cc2)c1
			6.40			Cc1[nH]nc(C(=O)O)c1Cc1cccc(-c2ccc(C(F)(F)F)cc2)c1
			5.96			Cc1[nH]nc(C(=O)O)c1Cc1ccc(C(N)=O)cc1
			5.92			CCOc1[nH]nc(C(=O)O)c1Cc1cccc(-c2ccc(F)cc2)c1

Ratio IC50 (Rattus norvegicus)	inhibition [1] [%]	inhibition [2] [%]	pIC50 (2-Hydroxyacid oxidase 2)	inhibition [3] [%]	inhibition [4] [%]	Compound
> 150	22	5	6.05			Cc1n[nH]c(C(=O)O)c1Cc1cccc(-c2ccccc2F)c1
> 150	43	10				Cc1n[nH]c(C(=O)O)c1Cc1ccc(Oc2ccccc2)cc1
> 150	14	7				Cc1n[nH]c(C(=O)O)c1Cc1ccc(F)cc1
> 150	60	18	6.70			Cc1n[nH]c(C(=O)O)c1Cc1cccc(-c2ccc(C(N)=O)cc2)c1
> 150	17	1				CCOc1n[nH]c(C(=O)O)c1Cc1cccc(-c2ccc(F)cc2)c1
> 150	14	5				Cc1n[nH]c(C(=O)O)c1Cc1ccc(-c2ccc(C(F)(F)F)cc2)cc1
	19	7		9	53	CNC(=O)c1[nH]nc(C)c1Cc1cccc(-c2ccc(F)cc2)c1
			6.15			O=C(O)c1n[nH]c(Cc2ccccc2)c1Cc1cccc(-c2ccc(F)cc2)c1
> 150	19	6				Cc1n[nH]c(C(=O)O)c1Cc1cccc(C#N)c1
> 150	12	8	5.96			Cc1n[nH]c(C(=O)O)c1Cc1ccc2ccccc2c1
	4	2		12	57	Cc1c(Cc2cccc(-c3ccc(F)cc3)c2)c(C(=O)O)nn1C
> 150	49	13	6.52			Cc1n[nH]c(C(=O)O)c1Cc1cccc(-c2ccncc2)c1
			6.10			O=C(O)c1n[nH]c(CCc2ccccc2)c1Cc1cccc(-c2ccc(F)cc2)c1
> 150	55	16				Cc1n[nH]c(C(=O)O)c1Cc1cccc(-c2ccc(F)cc2)c1
> 150	50	20				Cc1n[nH]c(C(=O)O)c1Cc1cccc(-c2cccc(F)c2)c1
> 150	39	5	6.05			Cc1n[nH]c(C(=O)O)c1CCc1ccc(-c2ccc(F)cc2)cc1
	3	5		4	10	Cc1nn(C)c(C(=O)O)c1Cc1cccc(-c2ccc(F)cc2)c1
			6.40			Cc1[nH]nc(C(=O)O)c1Cc1ccc(-c2ccc(F)cc2)cc1
			6.40			Cc1[nH]nc(C(=O)O)c1Cc1cccc(-c2ccc(CC(=O)O)cc2)c1
			6.30			Cc1[nH]nc(C(=O)O)c1Cc1cccc(-c2cccc(F)c2)c1
			6.30			Cc1[nH]nc(C(=O)O)c1Cc1cccc(C#N)c1
